# Assay results reported in patent publication US10221172B2, “Benzothiazole and benzisothiazole-substituted compounds as mGluR4 allosteric potentiators, compositions, and methods of treating neurological dysfunction” (Vanderbilt University, priority 2015, dated 2019).
# Biological target: human mGluR4 (Homo sapiens (Human), UniProt Q14833)
# Experiment: mGluR4 potentiation assay, CHO cells transfected with human mGluR4, Ca2+-sensitive dye, EC20 agonist
# Type: cell-based
# Settings: potentiation of mGluR4
# Description: The disclosed compounds and compositions can be evaluated for their ability to act as a potentiator of metabotropic glutamate receptor activity, in particular mGluR4 activity, by any suitable known methodology known in the art. For example, Chinese Hamster Ovary (CHO) cells transfected with human mGluR4 or HEK cells co-transfected with rat mGluR4 and the G-protein regulated Inwardly Rectifying Potassium channel (GIRK) were plated in clear bottom assay plates for assay in a Hamamatsu FDSS Fluorometric Plate Reader. The cells were loaded with either a Ca2+-sensitive fluorescent dye or the thallium responsive dye and the plates were washed and placed into a suitable kinetic plate reader. For human mGluR4 assays, a fluorescence baseline was established for 3-5 seconds, the disclosed compounds were then added to the cells, and the response in cells was measured. Approximately two and a half minutes later, a concentration of mGluR4 orthosteric agonist (e.g. glutamate or L-AP4) eliciting approximately 20% (EC20) of the maximal agonist response was added to the cells, and the response was measured. Two minutes later, a concentration of mGluR4 agonist (e.g. glutamate or L-AP4) eliciting 80% (EC80) of the maximal agonist response was added to the cells, and the response was measured. For rat mGluR4/GIRK experiments, a baseline was established for approximately five seconds, disclosed compounds were added, and either an EC20 or EC80 concentration of agonist was added approximately two and one half minutes later. Potentiation of the agonist response of mGluR4 by the disclosed compounds was observed as an increase in response to the EC20 concentration of agonist in the presence of compound compared to the response to agonist in the absence of compound. Similarly, antagonism of the agonist response of mGluR4 by the disclosed compounds was observed as a decrease in response to the EC80 concentration of agonist in the presence of compound compared to the response to agonist in the absence of compound.
# The above described assay operated in two modes. In the first mode, a range of concentrations of the disclosed compounds are added to cells, followed by a single fixed concentration of agonist. If the compound acts as a potentiatior, an EC50 value for potentiation and a maximum extent of potentiation by the compound at this concentration of agonist is determined by non-linear curve fitting. If the compound acts as a noncompetitive antagonist, an IC50 value is determined by non-linear curve fitting. In the second mode, several fixed concentrations of the disclosed compounds are added to various wells on a plate, followed by a range in concentrations of agonist for each concentration of disclosed compound. The EC50 values for the agonist at each concentration of compound are determined by non-linear curve fitting. A decrease in the EC50 value of the agonist with increasing concentrations of the sample compound (a leftward shift of the agonist concentration-response curve) is an indication of the degree of mGluR4 potentiation at a given concentration of the sample compound. A decrease in the maximal response of the agonist with increasing concentrations of the sample compounds, with or without a rightward shift in agonist potency, is an indication of the degree of noncompetitive antagonism at mGluR4. The second mode also indicates whether the sample compounds also affect the maximum response to mGluR4 to agonists.
# [1] = main compound table, species not given
# [2] = summary list repeated at the end of the table, species not stated
# Chain of human mGluR4 (Q14833 33-912): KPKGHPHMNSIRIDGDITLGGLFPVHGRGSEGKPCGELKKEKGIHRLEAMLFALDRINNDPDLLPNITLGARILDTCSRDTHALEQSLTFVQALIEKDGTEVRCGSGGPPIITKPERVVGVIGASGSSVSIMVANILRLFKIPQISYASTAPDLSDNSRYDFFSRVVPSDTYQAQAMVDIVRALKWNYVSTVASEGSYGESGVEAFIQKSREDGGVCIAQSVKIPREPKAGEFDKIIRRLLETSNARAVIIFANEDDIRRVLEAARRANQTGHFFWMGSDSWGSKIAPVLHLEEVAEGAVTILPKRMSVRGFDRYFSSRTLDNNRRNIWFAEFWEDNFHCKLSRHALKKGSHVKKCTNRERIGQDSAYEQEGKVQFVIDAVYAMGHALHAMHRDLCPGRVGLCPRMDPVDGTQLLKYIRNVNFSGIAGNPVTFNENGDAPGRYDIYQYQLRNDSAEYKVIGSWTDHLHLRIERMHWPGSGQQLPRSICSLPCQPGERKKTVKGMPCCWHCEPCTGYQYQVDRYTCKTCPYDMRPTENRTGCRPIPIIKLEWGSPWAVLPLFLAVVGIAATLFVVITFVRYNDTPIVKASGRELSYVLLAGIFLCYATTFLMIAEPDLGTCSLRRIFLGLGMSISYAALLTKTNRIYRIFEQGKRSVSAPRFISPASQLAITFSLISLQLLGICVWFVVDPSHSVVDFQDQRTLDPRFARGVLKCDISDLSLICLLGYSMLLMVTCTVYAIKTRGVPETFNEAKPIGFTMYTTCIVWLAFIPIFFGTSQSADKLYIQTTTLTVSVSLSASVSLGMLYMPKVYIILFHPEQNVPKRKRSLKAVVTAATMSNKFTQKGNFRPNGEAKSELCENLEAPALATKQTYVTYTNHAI
SMILES,EC50 [1] [nM],EC50 [2] [nM]
"CC(C)(C)C1CCN(Cc2nsc3cc(Nc4n[nH]c5cccnc45)cnc23)CC1 [Example 56, 3-((4-(tert-butyl)piperidin-1-yl)methyl)-N-(1H-pyrazolo[4,3-b]pyridin-3-yl)isothiazolo[4,5-b] pyridin-6-amine]",1390,1390
"OCc1nsc2cc(Nc3n[nH]c4cccnc34)cnc12 [Example 47, (6-((1H-pyrazolo[4,3-b]pyridin-3-yl)amino)isothiazolo[4,5-b]pyridin-3-yl)methanol]",1060,1060
"O=C(c1nsc2cc(Nc3n[nH]c4cccnc34)ccc12)N1CCC(N2CCOCC2)C1 (stereo not shown) [Example 14, (6-((1H-pyrazolo[4,3-b]pyridin-3-yl)amino)benzo[d]isothiazol-3-yl) (3-morpholinopyrrolidin-1-yl)methanone]",3450,3450
"CC(=O)N1CCC(c2nsc3cc(Nc4n[nH]c5nccnc45)ccc23)CC1 [Example 63, 1-(4-(6-((1H-pyrazolo [3,4-b]pyrazin-3-yl)amino)benzo[d]isothiazol-3-yl)piperidin-1-yl)ethan-1-one]",154,154
"FC1CCN(Cc2nsc3cc(Nc4n[nH]c5cccnc45)cnc23)CC1 [Example 51, 3-((4-fluoropiperidin-1-yl)methyl)-N-(1H-pyrazolo[4,3-b]pyridin-3-yl)isothiazolo[4,5-b] pyridin-6-amine]",247,247
"O=C(C1CC1)N1CCC(c2nsc3cc(Nc4n[nH]c5cccnc45)ccc23)CC1 [Example 71, (4-(6-((1H-pyrazolo [4,3-b]pyridin-3-yl)amino)benzo[d]isothiazol-3-yl)piperidin-1-yl) (cyclopropyl) methanone]",388,388
"CN1CCC2(CCN(C(=O)c3nsc4cc(Nc5n[nH]c6nccnc56)ccc34)CC2)C1=O [Example 31, 8-(6-((1H-pyrazolo[3,4-b]pyrazin-3-yl)amino)benzo[d]isothiazole-3-carbonyl)-2-methyl-2,8-diazaspiro[4.5]decan-1-one]",1210,1210
"CN1CCN(C(=O)c2nsc3cc(Nc4n[nH]c5nccnc45)ccc23)CC1=O [Example 32, 4-(6-((1H-pyrazolo[3,4-b]pyrazin-3-yl)amino)benzo [d]isothiazole-3-carbonyl)-1-methylpiperazin-2-one]",1530,1530
"O=C(c1nsc2cc(Nc3n[nH]c4cccnc34)ccc12)N1CCS(=O)(=O)CC1 [Example 8, (6-((1H-pyrazolo [4,3-b]pyridin-3-yl)amino)benzo[d]isothiazol-3-yl)(1,1-dioxido-thiomorpholino) methanone]",136,136
"O=C(c1nsc2cc(Nc3n[nH]c4cccnc34)ccc12)N1CCC(F)(F)CC1 [Example 5, (6-((1H-pyrazolo[4,3-b]pyridin-3-yl)amino)benzo[d]isothiazol-3-yl) (4,4-difluoropiperidin-1-yl) methanone]",60,60
"CC1CCN(C(=O)c2nsc3cc(Nc4n[nH]c5cccnc45)ccc23)CC1 [Example 19, (6-((1H-pyrazolo [4,3-b]pyridin-3-yl)amino)benzo[d]isothiazol-3-yl) (4-methylpiperidin-1-yl)methanone]",408,408
"O=C(c1nsc2cc(Nc3n[nH]c4cccnc34)ccc12)N1CCC(F)CC1 [Example 20, (6-((1H-pyrazolo [4,3-b]pyridin-3-yl)amino)benzo [d]isothiazol-3-yl) (4-fluoropiperidin-1-yl)methanone]",249,249
"c1cnc2c(Nc3cnc4c(CN5CCOCC5)nsc4c3)n[nH]c2c1 [Example 54, 3-(morpholinomethyl)-N-(1H-pyrazolo[4,3-b]pyridin-3-yl)isothiazolo[4,5-b] pyridin-6-amine]",630,630
"O=C(c1nsc2cc(Nc3n[nH]c4cccnc34)ccc12)N1CCC(C(F)(F)F)CC1 [Example 21, (6-((1H-pyrazolo [4,3-b]pyridin-3-yl)amino)benzo[d]isothiazol-3-yl) (4-(trifluoromethyl)piperidin-1-yl) methanone]",50,50
"CN(C(=O)c1nsc2cc(Nc3n[nH]c4cccnc34)ccc12)C1CC(F)(F)C1 [Example 15, 6-((1H-pyrazolo[4,3-b]pyridin-3-yl)amino)-N-(3,3-difluorocyclobutyl)-N-methylbenzo[d] isothiazole-3-carboxamide]",164,164
"C[C@H]1CN(Cc2nsc3cc(Nc4n[nH]c5cccnc45)cnc23)CCO1 [Example 59, (S)-3-((2-methylmorpholino)methyl)-N-(1H-pyrazolo[4,3-b]pyridin-3-yl)isothiazolo[4,5-b] pyridin-6-amine]",353,353

# Further lines, results first:
EC50 [1] [nM],EC50 [2] [nM],SMILES
100,100,"CCc1nsc2cc(Nc3n[nH]c4ncccc34)cnc12 [Example 42, 3-ethyl-N-(1H-pyrazolo[3,4-b]pyridin-3-yl)isothiazolo [4,5-b]pyridin-6-amine]"
216,216,"c1cnc2c(Nc3ccc4c(-c5ccsc5)nsc4c3)n[nH]c2c1 [Example 45, N-(1H-pyrazolo[4,3-b]pyiridn-3-yl)-3-(thiophen-3-yl)benzo[d] isothiazol-6-amine]"
226,226,"c1ccc(-c2nsc3cc(Nc4n[nH]c5cccnc45)ccc23)cc1 [Example 43, 3-phenyl-N-(1H-pyrazolo [4,3-b]pyridin-3-yl)benzo[d]isothiazol-6-amine]"
568,568,"CN(Cc1nsc2cc(Nc3n[nH]c4ncccc34)cnc12)C1CC(F)(F)C1 [Example 53, 3-(((3,3-difluorocyclobutyl) (methyl)amino)methyl)-N-(1H-pyrazolo[3,4-b]pyridin-3-yl)isothiazolo[4,5-b]pyridin-6-amine]"
144,144,"c1cnc2c(Nc3ccc4c(-c5ccsc5)nsc4c3)n[nH]c2n1 [Example 46, N-(1H-pyrazolo[3,4-b]pyrazin-3-yl)-3-(thiophen-3-yl)benzo[d] isothiazol-6-amine]"
4130,4130,"CC(C)(C)C1CCN(Cc2nsc3cc(Nc4n[nH]c5ncccc45)cnc23)CC1 [Example 57, 3-((4-(tert-butyl)piperidin-1-yl)methyl)-N-(1H-pyrazolo[3,4-b]pyridin-3-yl)isothiazolo[4,5-b] pyridin-6-amine]"
180,180,"Cc1nsc2cc(Nc3n[nH]c4ncccc34)cnc12 [Example 48, 3-methyl-N-(1H-pyrazolo [3,4-b]pyridin-3-yl)isothiazolo[4,5-b] pyridin-6-amine]"
1240,1240,"FC(F)(F)c1nsc2cc(Nc3n[nH]c4ncccc34)ccc12 [Example 29, N-(1H-pyrazolo[3,4-b]pyridin-3-yl)-3-(trifluoromethyl)benzo[d] isothiazol-6-amine]"
–,329,"CC(C)(C)c1nsc2cc(Nc3n[nH]c4cccnc34)ccc12 [Example 25, 3-(tert-butyl)-N-(1H-pyrazolo[4,3-b]pyridin-3-yl)benzo[d]isothiazol-6-amine]"
2040,2040,"c1ccc(-c2nsc3cc(Nc4n[nH]c5ncccc45)ccc23)cc1 [Example 44, 3-phenyl-N-(1H-pyrazolo [3,4-b]pyridin-3-yl)benzo[d]isothiazol-6-amine]"
607,607,"O=C(c1nsc2cc(Nc3n[nH]c4cccnc34)ccc12)N1CCCOCC1 [Example 17, (6-((1H-pyrazolo[4,3-b]pyridin-3-yl)amino)benzo[d]isothiazol-3-yl)(1,4-oxazepan-4-yl)methanone]"
220,220,"CCCc1nsc2cc(Nc3n[nH]c4ncccc34)ccc12 [Example 26, 3-propyl-N-(1H-pyrazolo[3,4-b]pyridin-3-yl)benzo[d]isothiazol-6-amine]"
